Results as given in patent US7105518B2, “Thiopyrane-4-ones as DNA protein kinase inhibitors” (priority 2001, dated 2006).
Where two headings read alike, the source gives them in different places.

Legend:
[1] = target: T1, ATM protein immunoprecipitated from HeLa cell nuclear extract (Homo sapiens, UniProt Q13315); test: ATM inhibition assay (GSTp53N66 serine 15 phosphorylation, chemiluminescence); assay type: biochemical; details: concentrations between 100 and 1 μM
T1 construct: ATM protein was immunoprecipitated from HeLa cell nuclear extract; endogenous in cells; host or cells: HeLa cell nuclear extract (immunoprecipitate)
T1 sequence (Q13315 whole entry): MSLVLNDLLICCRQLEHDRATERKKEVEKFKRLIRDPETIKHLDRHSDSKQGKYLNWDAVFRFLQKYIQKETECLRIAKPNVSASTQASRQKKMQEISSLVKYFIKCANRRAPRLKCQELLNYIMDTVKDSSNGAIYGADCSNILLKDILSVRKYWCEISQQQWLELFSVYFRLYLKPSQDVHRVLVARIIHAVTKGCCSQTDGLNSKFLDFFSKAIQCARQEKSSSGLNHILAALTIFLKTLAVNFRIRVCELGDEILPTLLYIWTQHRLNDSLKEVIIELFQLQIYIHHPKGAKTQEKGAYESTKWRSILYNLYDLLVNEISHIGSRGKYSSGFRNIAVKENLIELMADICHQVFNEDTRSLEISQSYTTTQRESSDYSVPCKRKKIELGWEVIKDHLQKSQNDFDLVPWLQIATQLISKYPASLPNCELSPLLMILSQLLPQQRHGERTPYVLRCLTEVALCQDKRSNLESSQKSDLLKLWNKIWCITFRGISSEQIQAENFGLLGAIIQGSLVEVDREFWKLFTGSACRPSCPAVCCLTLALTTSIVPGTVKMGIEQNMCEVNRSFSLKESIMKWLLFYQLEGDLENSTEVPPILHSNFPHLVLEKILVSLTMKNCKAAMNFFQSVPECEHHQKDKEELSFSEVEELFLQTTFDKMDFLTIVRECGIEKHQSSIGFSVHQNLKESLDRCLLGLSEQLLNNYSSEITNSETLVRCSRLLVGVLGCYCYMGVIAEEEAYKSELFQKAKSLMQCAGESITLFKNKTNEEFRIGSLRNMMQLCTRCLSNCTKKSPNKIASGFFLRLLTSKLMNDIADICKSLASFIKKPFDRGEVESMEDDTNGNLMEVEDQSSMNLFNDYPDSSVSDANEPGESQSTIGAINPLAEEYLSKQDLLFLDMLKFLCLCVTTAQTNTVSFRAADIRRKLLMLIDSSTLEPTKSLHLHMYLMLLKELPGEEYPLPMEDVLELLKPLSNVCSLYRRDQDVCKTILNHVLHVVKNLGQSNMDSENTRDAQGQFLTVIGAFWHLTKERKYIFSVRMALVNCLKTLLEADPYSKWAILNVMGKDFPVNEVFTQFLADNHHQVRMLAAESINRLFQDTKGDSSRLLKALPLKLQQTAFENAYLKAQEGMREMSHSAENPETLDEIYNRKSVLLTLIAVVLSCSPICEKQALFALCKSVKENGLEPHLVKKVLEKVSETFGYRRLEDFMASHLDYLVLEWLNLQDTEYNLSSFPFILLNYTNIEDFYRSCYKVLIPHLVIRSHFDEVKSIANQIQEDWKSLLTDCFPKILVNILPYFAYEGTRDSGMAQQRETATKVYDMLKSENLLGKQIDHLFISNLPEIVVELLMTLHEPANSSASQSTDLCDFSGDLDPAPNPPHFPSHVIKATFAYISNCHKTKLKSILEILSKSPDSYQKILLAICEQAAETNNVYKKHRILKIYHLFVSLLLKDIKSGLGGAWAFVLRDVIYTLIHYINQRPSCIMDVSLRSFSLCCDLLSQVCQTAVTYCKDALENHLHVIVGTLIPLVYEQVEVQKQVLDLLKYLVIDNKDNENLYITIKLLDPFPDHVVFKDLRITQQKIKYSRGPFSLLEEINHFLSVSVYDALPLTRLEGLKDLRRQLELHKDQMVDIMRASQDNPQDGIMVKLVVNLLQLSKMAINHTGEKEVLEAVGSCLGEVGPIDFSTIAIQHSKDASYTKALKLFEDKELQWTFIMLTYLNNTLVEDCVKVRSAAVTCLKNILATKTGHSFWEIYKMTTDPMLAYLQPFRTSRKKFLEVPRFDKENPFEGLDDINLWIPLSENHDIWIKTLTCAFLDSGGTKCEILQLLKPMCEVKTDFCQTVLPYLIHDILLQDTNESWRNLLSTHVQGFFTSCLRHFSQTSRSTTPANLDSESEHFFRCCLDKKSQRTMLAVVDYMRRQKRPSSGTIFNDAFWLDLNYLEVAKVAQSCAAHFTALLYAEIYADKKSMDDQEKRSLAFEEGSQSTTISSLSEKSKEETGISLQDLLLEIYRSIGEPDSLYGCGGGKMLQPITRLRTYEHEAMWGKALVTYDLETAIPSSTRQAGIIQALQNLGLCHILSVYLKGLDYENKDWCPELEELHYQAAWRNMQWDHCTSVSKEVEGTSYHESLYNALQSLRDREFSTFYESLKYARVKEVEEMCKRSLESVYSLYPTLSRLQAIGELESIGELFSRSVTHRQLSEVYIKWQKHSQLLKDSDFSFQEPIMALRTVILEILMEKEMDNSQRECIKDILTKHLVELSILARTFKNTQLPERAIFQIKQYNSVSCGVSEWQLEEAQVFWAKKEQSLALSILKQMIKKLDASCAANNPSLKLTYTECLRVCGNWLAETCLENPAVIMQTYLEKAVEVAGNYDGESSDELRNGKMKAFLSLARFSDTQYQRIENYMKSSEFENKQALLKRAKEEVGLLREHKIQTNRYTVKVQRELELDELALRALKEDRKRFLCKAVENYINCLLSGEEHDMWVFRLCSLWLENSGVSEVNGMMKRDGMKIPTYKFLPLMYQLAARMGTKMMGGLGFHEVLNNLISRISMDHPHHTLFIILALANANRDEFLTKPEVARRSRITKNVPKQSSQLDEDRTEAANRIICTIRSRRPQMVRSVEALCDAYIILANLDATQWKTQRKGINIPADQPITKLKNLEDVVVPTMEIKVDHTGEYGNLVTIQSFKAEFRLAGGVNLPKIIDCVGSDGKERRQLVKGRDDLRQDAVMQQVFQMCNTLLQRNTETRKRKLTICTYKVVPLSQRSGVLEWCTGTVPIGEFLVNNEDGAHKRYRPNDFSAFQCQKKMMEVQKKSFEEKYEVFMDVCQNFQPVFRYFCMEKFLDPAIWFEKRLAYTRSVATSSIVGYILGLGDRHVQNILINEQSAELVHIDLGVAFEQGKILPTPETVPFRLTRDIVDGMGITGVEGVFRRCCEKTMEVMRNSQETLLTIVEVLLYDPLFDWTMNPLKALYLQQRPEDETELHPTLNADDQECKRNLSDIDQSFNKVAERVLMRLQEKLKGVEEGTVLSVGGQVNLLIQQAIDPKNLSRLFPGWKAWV
Description: In order to assess the inhibitory action of the compounds against ATM in vitro, the following assay was used to determine IC50 values.
ATM protein was immunoprecipitated from HeLa cell nuclear extract using rabbit polyclonal antisera raised to the C-terminal ˜500 amino-acid residues of the human ATM protein. […] 10 μl of immunoprecipitated ATM in Buffer C (50 mM Hepes, pH 7.4, 6 mM MgCl2, 150 mM NaCl, 0.1 mM sodium orthovanadate, 4 mM MnCl2, 0.1 mM dithiothreitol, 10% glycerol) was added to 32.5 μl of buffer C containing 1 μg of the ATM substrate GSTp53N66 in a V-bottomed 96 well polypropylene plate. The GSTp53N66 substrate is the amino terminal 66 amino acid residues of human wild type p53 fused to glutathione S-transferase. […] Varying concentrations of inhibitor were then added. […] After 10 minutes of incubation at 37° C., the reactions were initiated by the addition of 5 μl of 50 μM Na-ATP. After 1 h with shaking at 37° C., 150 μl of phosphate buffered saline (PBS) was added to the reaction and the plate centrifuged at 1500 rpm for 10 minutes. 5 μl of the reaction was then transferred to a 96 well opaque white plate containing 45 μl of PBS to allow the GSTp53N66 substrate to bind to the plate wells. The plate was covered and incubated at room temperature for 1 h with shaking before discarding the contents. The plate wells were washed twice by the addition of PBS prior to the addition of 3% (w/v) bovine serum albumin (BSA) in PBS. The plate was incubated at room temperature for 1 h with shaking before discarding the contents and washing twice with PBS. To the wells, 50 μl of a 1:10, 000 dilution of primary phosphoserine-15 antibody (Cell Signaling Technology, #9284L) in 3% BSA/PBS was added to detect the phosphorylation event on the serine 15 residue of p53 elicited by the ATM kinase. […] The wells were then washed four times with PBS before the addition of chemiluminescence reagent (NEN Renaissance, NEL105). The plate was then shaken briefly, covered with a transparent plate seal and transferred to a TopCount NXT for chemiluminescent counting. Counts per second, following a one second counting time, were recorded for each reaction. The inhibition of ATM activity by compounds was calculated as described above for the DNA-PK assay.
(§1) The selectivity was determined by the following equation: […]

[2] = target: T2, Baculoviral recombinant GST-fused PI 3-kinase (p110α/p85α) (Homo sapiens, UniProt P42336); test: PI 3-kinase inhibition assay; assay type: biochemical
T2 construct: GST; made in house; host or cells: Sf9 insect cells (baculovirus)
T2 sequence (P42336 whole entry, species assumed, the tested form may be a part): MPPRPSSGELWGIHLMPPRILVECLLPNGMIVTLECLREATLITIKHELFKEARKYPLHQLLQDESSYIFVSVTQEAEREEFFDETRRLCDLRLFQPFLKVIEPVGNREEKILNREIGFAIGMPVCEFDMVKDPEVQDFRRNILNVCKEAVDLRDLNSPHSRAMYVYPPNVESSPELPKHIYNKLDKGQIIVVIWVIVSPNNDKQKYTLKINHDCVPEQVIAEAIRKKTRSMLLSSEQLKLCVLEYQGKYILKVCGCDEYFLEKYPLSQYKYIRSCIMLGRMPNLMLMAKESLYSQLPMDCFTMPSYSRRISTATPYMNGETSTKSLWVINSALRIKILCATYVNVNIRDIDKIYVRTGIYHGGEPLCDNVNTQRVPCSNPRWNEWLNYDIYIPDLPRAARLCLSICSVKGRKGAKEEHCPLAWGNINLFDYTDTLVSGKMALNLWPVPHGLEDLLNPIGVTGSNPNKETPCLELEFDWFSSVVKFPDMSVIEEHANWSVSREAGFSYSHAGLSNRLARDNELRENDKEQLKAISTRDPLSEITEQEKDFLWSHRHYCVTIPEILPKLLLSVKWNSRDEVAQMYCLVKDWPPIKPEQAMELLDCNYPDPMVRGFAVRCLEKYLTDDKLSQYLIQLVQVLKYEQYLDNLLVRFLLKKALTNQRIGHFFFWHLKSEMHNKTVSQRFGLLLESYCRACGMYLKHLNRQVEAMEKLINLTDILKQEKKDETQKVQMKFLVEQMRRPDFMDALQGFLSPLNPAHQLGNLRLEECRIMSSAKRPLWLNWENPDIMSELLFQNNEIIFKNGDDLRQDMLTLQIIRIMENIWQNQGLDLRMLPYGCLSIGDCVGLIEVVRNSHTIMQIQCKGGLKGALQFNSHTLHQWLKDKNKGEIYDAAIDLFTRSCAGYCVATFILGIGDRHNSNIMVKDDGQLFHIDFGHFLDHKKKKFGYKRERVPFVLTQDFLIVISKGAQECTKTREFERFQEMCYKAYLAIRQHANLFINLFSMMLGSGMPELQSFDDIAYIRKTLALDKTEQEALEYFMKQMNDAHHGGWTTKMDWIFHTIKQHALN
T2 sequence (P27986 whole entry partner, species assumed, the tested form may be a part): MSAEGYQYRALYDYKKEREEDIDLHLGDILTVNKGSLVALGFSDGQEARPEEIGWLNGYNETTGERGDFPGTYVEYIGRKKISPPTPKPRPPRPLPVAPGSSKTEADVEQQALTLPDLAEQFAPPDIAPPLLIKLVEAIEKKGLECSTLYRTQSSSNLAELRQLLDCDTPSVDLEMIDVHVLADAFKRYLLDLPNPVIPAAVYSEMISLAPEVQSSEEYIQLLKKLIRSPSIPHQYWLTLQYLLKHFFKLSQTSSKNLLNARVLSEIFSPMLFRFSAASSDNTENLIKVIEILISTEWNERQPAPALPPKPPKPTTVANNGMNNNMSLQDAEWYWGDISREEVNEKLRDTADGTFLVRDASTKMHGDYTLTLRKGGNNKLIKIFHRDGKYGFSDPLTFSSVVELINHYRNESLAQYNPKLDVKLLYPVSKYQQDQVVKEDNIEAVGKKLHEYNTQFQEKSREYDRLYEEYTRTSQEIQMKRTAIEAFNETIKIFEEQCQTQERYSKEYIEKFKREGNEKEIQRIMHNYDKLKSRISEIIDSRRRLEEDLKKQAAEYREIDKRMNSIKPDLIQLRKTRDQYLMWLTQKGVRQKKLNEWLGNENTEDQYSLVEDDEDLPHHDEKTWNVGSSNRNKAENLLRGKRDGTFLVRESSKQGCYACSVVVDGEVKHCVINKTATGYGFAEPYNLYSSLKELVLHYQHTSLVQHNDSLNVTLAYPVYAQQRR
Description: In order to assess the inhibitory action of the compounds against PI 3-kinase in vitro, the following assay was used to determine IC50 values.
PI 3-kinase (1 μl) was diluted in reaction buffer (89 μl of 50 mM Hepes pH 7.5, 150 mM NaCl, 0.1 mM Sodium Orthovanadate, containing 20 μg of phosphatidylinositol) and varying concentrations of inhibitor compound added. […] Reactions were incubated for a further 20 minutes at 37° C., before quenching with the addition of 400 μl of chloroform/methanol (1:1). Reactions were acidified by the addition of 200 μl of 1M HCl, before separation of the organic and aqueous phases by centrifugation at 10,000 g for 30 seconds. The organic phase was transferred to a fresh tube and washed twice with 150 μl of 1M hydrochloric acid/methanol (1:1), discarding the aqueous phase. The washed reaction product was then placed in a white 96-well plate with 100 μl of scintillation fluid and transferred to a TopCount NXT for scintillation counting. Counts per minute, following a one minute counting time, were recorded for each reaction. The inhibition of PI 3-kinase activity by compounds was calculated as described above for the DNA-PK assay.
as §1

[3] = target: T3, Mammalian DNA-PK, isolated from Hela cell nuclear extract (Homo sapiens, UniProt P78527); test: DNA-PK inhibition assay (33P-ATP, phosphocellulose filter, scintillation counting); assay type: biochemical; details: for inhibition at 1 µM: read-out: inhibition of DNA-PK at 1 μM; for inhibition at 2 µM: read-out: inhibition of DNA-PK at 2 μM, single concentration 2 μM
T3 construct: Mammalian DNA-PK, isolated from Hela cell nuclear extract; endogenous in cells; host or cells: HeLa cell nuclear extract
Description: In order to assess the inhibitory action of the compounds against DNA-PK in vitro, the following assay was used.
The total assay volume per well was 40 μl.
After 10 minutes of incubation at 30° C. the reactions were initiated by the addition of Na-ATP (50 μM final), ^33P-γATP and a 30mer double stranded DNA oligonucleotide (10 ng/μl) in a volume of 10 μl. Designated positive and negative reaction wells were done in combination with compound wells (unknowns) in order to calculate % enzyme activities. The plates were then shaken for 2 minutes and incubated at 30° C. for 45 minutes.
Following the incubation, the reactions were quenched by the addition of 50 μl 30% acetic acid to each well. The plates were then shaken for 5 minutes and the contents of each plate (80 μl from each well) transferred over to a 96 well Polyfiltronics filtration plate, containing P81-phosphocellulose membrane (TRADE MARK)(Whatman, UK). The solutions were vacuum pumped through the membrane and each well membrane washed four times using 300 μl of 15% acetic acid. The well membranes were then air dried and 20 μl of scintillant was added to each well.
The plates were transferred to a TopCount NXT (TRADE MARK) (Packard, UK) for scintillation counting. Values recorded are counts per minute (cpm) following a 1 minute counting time for each well.
The enzyme activity for each compound is then calculated using the following equation: […]
In Table 1 below, the results are IC50 values (the concentration at which 50% of the enzyme activity is inhibited). These are determined over a range of different concentrations, normally from 10 μM down to 0.01 μM. Such IC50 values are used as comparative values to identify increased compound potencies.

PI 3-kinase = details: literature, stated the same as for DNA-PK; cited from earlier work
[4] = test system: mammalian cells in culture; details: literature; cited from earlier work

Structure (SMILES) | IC50 [3] [µM] | inhibition at 1 µM ([3]; single concentration 1 μM) [%] | inhibition at 2 µM [3] [%] | further results
O=c1cc(-c2ccccc2)sc(N2CCOCC2)c1 [Compound 1, 2-Morpholin-4-yl-6-phenyl-thiopyran-4-one] | – | – | – | IC50 [1]: > 100 µM; melting point: 160 to 161 °C; IC50 [2]: 10 µM
CC(C)(C)c1ccc(-c2cc(=O)cc(N3CCOCC3)s2)cc1 [Compound 2, 2-(4-tert-Butyl-phenyl)-6-morpholin-4-yl-thiopyran-4-one] | – | – | – | IC50 [1]: > 100 µM; melting point: 172 to 173 °C; IC50 [2]: 40 µM
COc1ccc(-c2cc(=O)cc(N3CCOCC3)s2)cc1 [Compound 3, 2-(4-Methoxy-phenyl)-6-morpholin-4-yl-thiopyran-4-one] | – | – | – | IC50 [1]: > 100 µM; IC50 [2]: 8 µM
O=c1cc(-c2ccc(Cl)cc2)sc(N2CCOCC2)c1 [Compound 4, 2-(4—Chloro-phenyl)-6-morpholin-4-yl-thiopyran-4-one] | – | – | – | IC50 [1]: > 100 µM; IC50 [2]: 5 µM
O=c1cc(-c2ccc(Br)cc2)sc(N2CCOCC2)c1 [Compound 5, 6-(4-Broinophenyl)-2-morpholin-4-yl-thiopyran-4-one] | – | – | – | melting point: 214 to 215 °C
O=c1cc(-c2cccc(Br)c2)sc(N2CCOCC2)c1 [Compound 6, 6-(3-Bromophenyl)-2-morpholin-4-yl-thiopyran-4-one] | – | – | – | melting point: 181 to 182 °C
O=c1cc(-c2ccc(-c3cccc(O)c3)cc2)sc(N2CCOCC2)c1 [Compound 14] | ≤ 2 | ≥ 10 | ≥ 50 | –
O=c1cc(-c2cccc(-c3ccccc3-c3ccccc3)c2)sc(N2CCOCC2)c1 [Compound 30] | ≤ 2 | – | ≥ 50 | inhibition at 1 µM [3]: ≥ 10%
CC(=O)Nc1cccc(-c2cccc(-c3cc(=O)cc(N4CCOCC4)s3)c2)c1 [Compound 31] | – | ≥ 10 | ≥ 50 | –
CC(=O)c1cccc(-c2cccc(-c3cc(=O)cc(N4CCOCC4)s3)c2)c1 [Compound 33] | ≤ 2 | – | ≥ 50 | inhibition at 1 µM [3]: ≥ 10%
O=c1cc(-c2cccc(-c3cccc(-c4ccccc4)c3)c2)sc(N2CCOCC2)c1 [Compound 35] | ≤ 2 | – | ≥ 50 | inhibition at 1 µM [3]: ≥ 10%
O=c1cc(-c2cccc(-c3cccc(CO)c3)c2)sc(N2CCOCC2)c1 [Compound 40] | ≤ 2 | – | ≥ 50 | inhibition at 1 µM [3]: ≥ 10%
O=c1cc(-c2cccc(-c3ccc(CO)cc3)c2)sc(N2CCOCC2)c1 [Compound 41] | ≤ 2 | – | ≥ 50 | inhibition at 1 µM [3]: ≥ 10%
O=c1cc(-c2cccc(-c3cccc(O)c3)c2)sc(N2CCOCC2)c1 [Compound 42] | – | ≥ 10 | ≥ 50 | –
O=c1cc(-c2cccc(-c3ccc(O)cc3)c2)sc(N2CCOCC2)c1 [Compound 43] | ≤ 2 | ≥ 10 | ≥ 50 | –
NCc1ccc(-c2cccc(-c3cc(=O)cc(N4CCOCC4)s3)c2)cc1 [Compound 46] | ≤ 2 | – | ≥ 50 | inhibition at 1 µM [3]: ≥ 10%
Nc1ccc(-c2cccc(-c3cc(=O)cc(N4CCOCC4)s3)c2)cc1 [Compound 48] | ≤ 2 | ≥ 10 | ≥ 50 | –
Nc1cccc(-c2cccc(-c3cc(=O)cc(N4CCOCC4)s3)c2)c1 [Compound 49] | ≤ 2 | ≥ 10 | ≥ 50 | –
CC(=O)Nc1ccccc1-c1cccc(-c2cc(=O)cc(N3CCOCC3)s2)c1 [Compound 51] | ≤ 2 | ≥ 10 | ≥ 50 | –
O=c1cc(-c2ccc(-c3cccs3)cc2)sc(N2CCOCC2)c1 [Compound 57] | ≤ 2 | ≥ 10 | ≥ 50 | –
O=c1cc(-c2ccc(-c3cccc4ccccc34)cc2)sc(N2CCOCC2)c1 [Compound 59] | – | ≥ 10 | ≥ 50 | –
Cc1ccc(-c2cccc(-c3cc(=O)cc(N4CCOCC4)s3)c2)c2ccccc12 [Compound 63] | ≤ 2 | ≥ 10 | ≥ 50 | –
O=c1cc(-c2cccc(-c3csc4ccccc34)c2)sc(N2CCOCC2)c1 [Compound 64] | ≤ 2 | ≥ 10 | ≥ 50 | –
O=c1cc(-c2cccc(-c3cccc4ccccc34)c2)sc(N2CCOCC2)c1 [Compound 69] | ≤ 2 | ≥ 10 | ≥ 50 | –
O=Cc1sccc1-c1cccc(-c2cc(=O)cc(N3CCOCC3)s2)c1 [Compound 70] | ≤ 2 | ≥ 10 | ≥ 50 | –
O=c1cc(N2CCOCC2)oc2c(-c3ccccc3)cccc12 [LY294002, reference compound] | 1.5 | – | – | IC50 [1]: > 100 µM; IC50 (PI 3-kinase): ~1 µM; sensitisation of cells to the effects of IR [4]: weakly sensitise cells to the effects of IR
